Assay results: PMC8286817, “Identifying SARS-CoV-2 antiviral compounds by screening for small molecule inhibitors of Nsp14 RNA cap methyltransferase” (Biochemical Journal, 2021)
Where two headings read alike, the source gives them in different places.

Experiments:
Vero E6 cells = test: Cell viability by DNA staining (DRAQ7) in the viral infection assay; type: cell-based; details: 22 h post infection
Procedure: We assayed expression of the viral N protein as a surrogate for viral replication by infecting cells with a constant amount of SARS-CoV-2 in the presence of inhibitor. We then quantified viral replicative capacity in fixed cells 22 h post-infection using a fluorescent anti-nucleoprotein antibody.
1.5 × 10^3 Vero E6 cells (NIBC, U.K.) resuspended in DMEM containing 10% FBS were seeded into each well of 96-well imaging plates (Greiner 655090) and cultured overnight at 37°C and 5% CO2. The next day, a 5× solution of compounds were generated by dispensing 10 mM stocks of compounds into a v-bottom 96-well plate (Thermo 249946) and back filling with DMSO to equalise the DMSO concentration in all wells using an Echo 550 (Labcyte) before resuspending in DMEM containing 10% FBS. […] Finally, the cells were infected by adding 20 µl of SARS-CoV2 with a final MOI of 0.5 PFU/cell. 22 h post infection, cells were fixed, permeabilised, and stained for SARS-CoV2 N protein using Alexa488-labelled-CR3009 antibody produced custom (see section for Recombinant mAb production) and cellular DNA using DRAQ7 (ABCAM). Whole-well imaging at 5× was carried out using an Opera Phenix (PerkinElmer) and fluorescent areas and intensity calculated using the Phenix-associated software Harmony (PerkinElmer).

SARS-CoV-2 [1] = test: microbe, parasite or virus in culture; type: cell-based
[2] = biological target: O-6′-methylguanine-DNA methyltransferase, MGMT; design: method as in PMID 16533784; details: read-out: IC50 against MGMT; cited from earlier work
SARS-CoV-2 [3] = details: remdesivir at 1 µM and below; cited from earlier work
[4] = biological target: nsp10–16 fusion 2′-O-methyltransferase (Severe acute respiratory syndrome coronavirus 2, UniProt P0DTD1); type: biochemical, SARS-CoV-2
SIRT1 = tested on: SIRT1; design: method as in PMID 22331558; details: read-out: IC50 against SIRT1; cited from earlier work
[5] = Severe acute respiratory syndrome coronavirus 2, Vero C1008, Vero E6 cells, MOI 0.5 PFU/cell, 22 h, in additional presence of 0.5 µM remdesivir, read-out: EC50 + Rem. of viral replication (viral nucleoprotein area)
[6] = Vero E6 cells, 0.5 µM remdesivir versus compound alone

In the case of Nc1nc(OCc2cc(Br)cs2)c2[nH]cnc2n1 [Lomeguatrib], the “Cytotoxicity at effective / EC50 concentrations (DNA staining)” value (Vero E6 cells) is reported as “slight cytotoxicity”, the EC50 (SARS-CoV-2 [1]; Severe acute respiratory syndrome coronavirus 2, Vero C1008, 22 h, read-out: EC50 of viral replication (viral nucleoprotein area)) is reported as 59.8 µM and the EC50 (SARS-CoV-2 [1]; [5]) is reported as 44.1 µM. The “EC50 reduction when combined with remdesivir” value (from here on “EC50 reduction when combined”) (SARS-CoV-2 [1]; [6]) was about 27% and the IC50 [2] was about 0.005 µM.
For N#Cc1ccc(N2N=C3c4ccc(C(=O)O)cc4CC[C@@H]3[C@@H]2C2CCCC2)cc1Cl [PF-03882845], the “EC50 reduction when combined” value (SARS-CoV-2 [1]) was about 56%, the EC50 (SARS-CoV-2 [1]; read-out: EC50 + Rem. of viral replication (viral nucleoprotein area)) was 4.79 µM and the EC50 (SARS-CoV-2 [1]; read-out: EC50 of viral replication (viral nucleoprotein area)) was 11 µM.
In the case of O=C(CCCN1CCC(O)(c2cccc(C(F)(F)F)c2)CC1)c1ccc(F)cc1 [Trifluperidol], the “Cytotoxicity at effective / EC50 concentrations (DNA staining)” value (Vero E6 cells) is reported as “little to no cytotoxicity”, the EC50 (SARS-CoV-2 [1]; [5]) is reported as 5.05 µM and the EC50 (SARS-CoV-2 [1]; Severe acute respiratory syndrome coronavirus 2, Vero C1008, Vero E6 cells, MOI 0.5 PFU/cell, 22 h post infection, read-out: EC50 of viral replication (viral nucleoprotein area)) is reported as 14.9 µM. The “EC50 reduction when combined” value (SARS-CoV-2 [1]; [6]) was about 66%.
For CCC(CC)COC(=O)[C@H](C)N[P@](=O)(OC[C@H]1O[C@@](C#N)(c2ccc3c(N)ncnn23)[C@H](O)[C@@H]1O)Oc1ccccc1 [remdesivir], the “Capacity to reduce viral titre in Vero E6 cells” value (SARS-CoV-2 [3]) is given as “limited capacity to reduce viral titre”.
With Nc1ncnc2c1ncn2[C@@H]1O[C@H](C[C@@H](N)CC[C@H](N)C(=O)O)[C@@H](O)[C@H]1O [sinefungin] the “Inhibition of nsp10–16 methyltransferase (normalised HTRF)” value [4] was “able to inhibit methyltransfer by nsp10–16”.
For Inauhzin, the “Cytotoxicity at effective / EC50 concentrations (DNA staining)” value (Vero E6 cells) was “little to no cytotoxicity”, the “EC50 reduction when combined” value (SARS-CoV-2 [1]; [6]) was “no increased inhibitory capacity” and the EC50 (SARS-CoV-2 [1]; Vero E6 cells, MOI 0.5 PFU/cell, 22 h, in additional presence of 0.5 µM remdesivir, read-out: EC50 + Rem. of viral replication (viral nucleoprotein area)) was 11.2 µM. The EC50 (SARS-CoV-2 [1]; Vero E6 cells, MOI 0.5 PFU/cell, 22 h post infection, read-out: EC50 of viral replication (viral nucleoprotein area)) was 13 µM and the IC50 (SIRT1) was about 1 µM.
